Here are results for 10 molecules from patent US5506256A, “Proline derivatives possessing prolyl endopeptidase-inhibitory activity” (Yoshitomi Pharmaceutical Industries, Ltd., priority 1990, dated 1996).

Molecules are shown by their SMILES. Like-named read-outs stand apart in the source and are kept apart here.

Assay [1] has as its target T1, trypsin (Bos taurus, UniProt P00760).
T1 construct: purchased Sigma; host or cells: bovine pancreas
T1 sequence (P00760 24-246): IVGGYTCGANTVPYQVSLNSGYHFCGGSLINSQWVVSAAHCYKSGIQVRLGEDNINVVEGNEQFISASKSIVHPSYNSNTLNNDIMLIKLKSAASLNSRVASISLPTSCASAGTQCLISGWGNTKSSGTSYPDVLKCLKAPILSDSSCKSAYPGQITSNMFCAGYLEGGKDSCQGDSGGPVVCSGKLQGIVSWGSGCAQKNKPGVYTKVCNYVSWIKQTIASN
Kind of assay: Determination of trypsin-inhibitory activity. The class given is biochemical, bovine. The following applies: 0.1 μM; read-out: inhibition rate, trypsin. On the procedure:
(§1) The methods for the measurement of inhibitory activities against various proteases and the method for calculating the inhibition rate are as follows.
Determination of trypsin-inhibitory activity
In the present invention, a 50 mM Tris-HCl buffer (pH 8.0) was employed as a buffer for measurement.
To a mixture of the above-mentioned buffer (850 μl), a solution of the compounds of the present invention in the same buffer (50 μl) and a 0.02 μM solution of trypsin (derived from bovine pancreas, Sigma) in the same buffer (50 μl) was added a 200 μM solution of 7-(prolyl-phenylaranyl-arginyl)-4-methylcoumarinamide (Peptide Institute, Inc.) in the same buffer (50 μl),and the mixture was incubated at 30° C. for 1 hour. The reaction mixture was immersed in ice (0° C.) to terminate the reaction, and the fluorescence (b1) was determined 1 hour later (excitation at 370 nm and emission at 440 nm). Concurrently, there were conducted the experiment wherein, in the system above, the trypsin solution was substituted for a buffer alone, and the experiment wherein the solution of the compounds of the present invention was substituted for a buffer above. Each fluorescence (b2 and b3) was determined respectively.
(§2) Using the fluorescence x1, x2 and x3 measured in the abovementioned manner, the inhibitory rate against various proteases was calculated by the following formula where x stands for b, c, d, e or f: [formula]

Assay [2] addresses T2, elastase (Sus scrofa, UniProt P00772).
T2 construct: purchased Sigma; host or cells: swine pancreas
Kind of assay: Determination of elastase-inhibitory activity. The class given is biochemical, swine. The following applies: 0.1 μM; read-out: inhibition rate, elastase. On the procedure:
as §1
Determination of elastase-inhibitory activity
Similarly, by following the procedure mentioned above, but employing a 1 mM Tris-HCl buffer (pH 8.5) as a buffer for measurement, a 0.2 μM solution of elastase (derived from swine pancreas, Sigma) in the same buffer as an enzyme solution and a 200 μM solution of 7-(N-succinyl-aranyl-prolyl-aranyl)-4-methylcoumarinamide (Peptide Institute, Inc.) in the same buffer as a substrate solution, each fluorescence (e1, e2 and e3) was determined, respectively.
as §2

Assay [3] addresses T3, cathepsin B (Bos taurus, UniProt P07688).
T3 construct: purchased Sigma; host or cells: bovine spleen
The assay is described as follows: Determination of cathepsin B-inhibitory activity. The class given is biochemical, bovine. The following applies: 0.1 μM; read-out: inhibition rate, cathepsin B. The procedure: as §1
Determination of cathepsin B-inhibitory activity
Similarly, by following the procedure mentioned above, but employing a 100 mM sodium phosphate buffer (pH 6.0; containing 1.33 mM EDTA Na2) as a buffer for measurement, a 0.02 μM solution of cathepsin B (derived from bovine spleen, Sigma) in the same buffer as an enzyme solution and a 200 μM solution of 7-(N-benzyloxycarbonyl-phenylaranyl-arginyl)-4-methylcoumarinamide (Peptide Institute, Inc.) in the same buffer as a substrate solution, each fluorescence (f1, f2 and f3) was determined, respectively.
as §2

For assay [4], the system named is leucine aminopeptidase. Kind of assay: Determination of leucine aminopeptidase-inhibitory activity. The class given is biochemical, swine. Set-up: unit not given here. The following applies: 0.1 μM. The procedure: as §1
Determination of leucine aminopeptidase-inhibitory activity
Similarly, by following the procedure mentioned above, but employing a 50 mM Tris-HCl buffer (pH 8.0) as a buffer for measurement, a […] solution of leucine aminopeptidase (derived from swine kidney, Sigma) in the same buffer as an enzyme solution and a 200 μM solution of 7-leucyl-4-methyl-coumarinamide (Peptide Institute, Inc.) in the same buffer as a substrate solution, each fluorescence (d1, d2 and d3) was determined, respectively.
as §2

Assay [5] addresses T4, prolyl endopeptidase (Rattus norvegicus, UniProt O70196).
T4 construct: prolyl endopeptidase extracted from rat brain; from tissue; host or cells: rat brain
The assay is described as follows: Prolyl endopeptidase-inhibitory activity. The following applies: for inhibition at 0.1 µM: read-out: inhibition rate, prolyl endopeptidase. The class given is biochemical. The procedure:
Prolyl endopeptidase-inhibitory activity
A mixture of a 0.1M potassium sodium phosphate buffer (pH 7.0) (2675 μl), a solution of the compounds of the present invention in a 0.1M potassium sodium phosphate buffer (pH 7.0) (100 μl) and a solution of prolyl endopeptidase extracted from rat brain in a 25 mM sodium phosphate buffer (100 μl) [123 unit/1, pH 6.8, containing 1 mM dithiothreitol and 0.5 mM EDTA, prepared by the method described in J. Neurochem., 35, 527 (1980)]was preincubated at 30° C. for 30 minutes. Thereto was added a 0.2 mM solution of 7-(N-succinyl-glycyl-prolyl)-4-methylcoumarinamide (Peptide Institute, INC.) in a 0.1M potassium sodium phosphate buffer (pH 7.0) (125 μl), and the mixture was incubated at 30° C. for 1 hour. The reaction mixture was immersed in ice (0° C.) to terminate the reaction, and the fluorescence (a1) was determined ten minutes later (excitation at 370 nm and emission at 440 nm). Concurrently, there were conducted the experiment wherein, in the above system, the prolyl endopeptidase solution was substituted for a 25 mM sodium phosphate buffer (pH 6.8, containing 1 mM dithiothreitol and 0.5 mM EDTA) and the experiment wherein the solution of the compounds of the present invention was substituted for a 0.1M potassium sodium phosphate buffer (pH 7.0). Each fluorescence (a2 and a3) was determined respectively [See Tanpakushitsu Kakusan Koso, 29, 127 (1984)]. The prolyl endopeptidase-inhibition rate was calculated by the following formula, and IC50, a concentration of a compound producing 50% inhibition, was estimated by semilogarithmic graph paper. [formula] […]

Assay [6] deals with T5, chymotrypsin (Bos taurus, UniProt P00766).
T5 construct: purchased Sigma; host or cells: bovine pancreas
The assay is described as follows: Determination of chymotrypsin-inhibitory activity. The class given is biochemical, bovine. The following applies: 0.1 μM; read-out: inhibition rate, chymotrypsin. On the procedure: as §1
Determination of chymotrypsin-inhibitory activity
Similarly, by following the procedure mentioned above, but employing a 50 mM Tris-HCl buffer (pH 8.0) as a buffer for measurement, a 0.2 μM solution of chymotrypsin (derived from bovine pancreas, Sigma) in the same buffer as an enzyme solution and a […] solution of 7-(N-succinyl-leucyl-leucyl-valyl-tyrosyl)-4-methylcoumarinamide (Peptide Institute, Inc.) in the same buffer as a substrate solution, each fluorescence (c1, c2 and c3) was determined, respectively.
as §2

The mark [7] stands for this setting: prolyl endopeptidase extracted from rat brain, pH 7.0, 30° C., read-out: IC50.

T4 sequence (O70196 whole entry): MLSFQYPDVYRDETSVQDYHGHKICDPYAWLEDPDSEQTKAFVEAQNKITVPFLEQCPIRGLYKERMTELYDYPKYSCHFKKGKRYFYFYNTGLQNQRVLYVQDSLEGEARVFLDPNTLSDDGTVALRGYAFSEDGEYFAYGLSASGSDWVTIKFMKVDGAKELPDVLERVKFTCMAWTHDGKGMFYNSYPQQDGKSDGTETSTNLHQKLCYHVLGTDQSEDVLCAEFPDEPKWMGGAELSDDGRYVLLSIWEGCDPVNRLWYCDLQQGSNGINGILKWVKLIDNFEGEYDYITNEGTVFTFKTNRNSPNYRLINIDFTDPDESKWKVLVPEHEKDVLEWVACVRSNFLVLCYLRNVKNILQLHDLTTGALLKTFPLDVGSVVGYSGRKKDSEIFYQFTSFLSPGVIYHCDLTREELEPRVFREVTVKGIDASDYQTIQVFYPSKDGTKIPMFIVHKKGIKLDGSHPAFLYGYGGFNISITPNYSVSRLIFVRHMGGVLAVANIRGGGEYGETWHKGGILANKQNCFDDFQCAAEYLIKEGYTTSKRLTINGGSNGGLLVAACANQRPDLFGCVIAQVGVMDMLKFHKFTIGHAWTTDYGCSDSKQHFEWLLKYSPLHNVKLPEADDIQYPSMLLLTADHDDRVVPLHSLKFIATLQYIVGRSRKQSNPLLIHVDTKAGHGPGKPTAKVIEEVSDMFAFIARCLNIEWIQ
T2 sequence (P00772 27-266): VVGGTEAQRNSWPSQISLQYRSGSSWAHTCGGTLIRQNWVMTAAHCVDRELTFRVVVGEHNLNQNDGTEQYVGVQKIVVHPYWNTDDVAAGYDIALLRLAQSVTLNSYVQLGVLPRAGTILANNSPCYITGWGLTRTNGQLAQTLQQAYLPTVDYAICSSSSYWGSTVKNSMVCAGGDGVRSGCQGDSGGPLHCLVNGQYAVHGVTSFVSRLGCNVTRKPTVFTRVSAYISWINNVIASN

`O=C(CSc1ccccc1)[C@@H]1CCCN1C(=O)[C@@H]1CCCN1C(=O)OCc1ccccc1` [Compound 1, (2S)-1-(N-Benzyloxycarbonyl-L-prolyl)-2-[(Phenylthio)acetyl]-pyrrolidine]: the inhibition (as a rule, how much of the control response was suppressed) at 0.1 µM in assay [1] amounted to 0%; in assay [2], 0%; in assay [3] it was 0%; in assay [5] it was 90%; in assay [6] it was 20%. In addition, the “inhibition rate, leucine aminopeptidase” value in assay [4] is recorded as 0. In addition, the half-maximal inhibitory concentration (IC50) – broadly, the concentration needed to halve the response being measured – in assay [5] (setting [7]) was 0.3 nM.

For the molecule `O=C(C[S+]([O-])c1ccccc1)[C@@H]1CCCN1C(=O)[C@@H]1CCCN1C(=O)OCc1ccccc1` (stereo partly drawn) [Compound 2, (2S)-1-(N-Benzyloxycarbonyl-L-prolyl)-2-[(phenylsulfinyl)-acetyl]pyrrolidine], the inhibition at 0.1 µM in assay [1] amounted to 0%; in assay [2] it was 0%; in assay [3], 0%; in assay [5] it was 100%; in assay [6], 0%. In assay [4], the “inhibition rate, leucine aminopeptidase” value was 0. For the same molecule, the IC50 in assay [5] (setting [7]) was determined as 1.2 nM.

With `O=C(CS(=O)(=O)c1ccccc1)[C@@H]1CCCN1C(=O)[C@@H]1CCCN1C(=O)OCc1ccccc1` [Compound 3, (2S)-1-(N-Benzyloxycarbonyl-L-prolyl)-2-[(phenylsulfonyl)-acetyl]pyrrolidine], the inhibition at 0.1 µM in assay [1] came out at 0%; in assay [2], 0%; in assay [3], 0%; in assay [5], 91%; in assay [6] it was 0%. Also, the “inhibition rate, leucine aminopeptidase” value in assay [4] is 0. The IC50 in assay [5] (setting [7]) came to 12 nM.

Turning to `O=C(COc1ccccc1)[C@@H]1CCCN1C(=O)[C@@H]1CCCN1C(=O)OCc1ccccc1` [Compound 4, (2S)-1-(N-Benzyloxycarbonyl-L-prolyl)-2-(phenoxyacetyl)-pyrrolidine], the inhibition at 0.1 µM came to 0% in assay [1]; 0% in assay [2]; 0% in assay [3]; 98% in assay [5]; 0% in assay [6]. Also, in assay [4], the “inhibition rate, leucine aminopeptidase” value turned out to be 0. Also, in assay [5] (setting [7]), the IC50 worked out at 0.3 nM.

With `O=C(C[S+]([O-])c1ccccc1)[C@@H]1CCCN1C(=O)[C@@H]1CCCN1C(=O)CCCc1ccccc1` (stereo partly drawn) [Compound 5, (2S)-1-[N-(4-Phenylbutyryl)-L-prolyl]-2-[(phenylsulfinyl)-acetyl]pyrrolidine], the inhibition at 0.1 µM in assay [1] is 0%; in assay [2], 0%; in assay [3], 0%; in assay [5] it was 98%; in assay [6], 0%. In addition, the “inhibition rate, leucine aminopeptidase” value in assay [4] amounted to 0. Also, in assay [5] (setting [7]), the IC50 worked out at 0.3 nM.

Turning to `COc1ccc([S+]([O-])CC(=O)[C@@H]2CCCN2C(=O)[C@@H]2CCCN2C(=O)OCc2ccccc2)cc1` (stereo partly drawn) [Compound 6, (2S)-1-(N-Benzyloxycarbonyl-L-prolyl)-2-[(4-methoxyphenylsulfinyl)acetyl]pyrrolidine], the inhibition at 0.1 µM was 0% in assay [1]; 0% in assay [2]; 20% in assay [3]; 98% in assay [5]; 0% in assay [6]. In assay [4], the “inhibition rate, leucine aminopeptidase” value is given as 0. In assay [5] (setting [7]), the IC50 amounted to 0.65 nM.

With `O=C(C[S+]([O-])c1ccc([N+](=O)[O-])cc1)[C@@H]1CCCN1C(=O)[C@@H]1CCCN1C(=O)OCc1ccccc1` (stereo partly drawn) [Compound 7, (2S)-1-(N-Benzyloxycarbonyl-L-prolyl)-2-[(4-nitrophenylsulfinyl)acetyl]pyrrolidine], the inhibition at 0.1 µM in assay [1] turned out to be 0%; in assay [2], 0%; in assay [3] it was 20%; in assay [5] it was 97%; in assay [6], 0%. In assay [4], the “inhibition rate, leucine aminopeptidase” value turned out to be 0. Also, the concentration for half-maximal inhibition (IC50) in assay [5] (setting [7]) was 1 nM.

`CC(C)[S+]([O-])CC(=O)[C@@H]1CCCN1C(=O)[C@@H]1CCCN1C(=O)OCc1ccccc1` (stereo partly drawn) [Compound 8, (2S)-1-(N-Benzyloxycarbonyl-L-prolyl)-2-[(isopropylsulfinyl)-acetyl]pyrrolidine]: the inhibition at 0.1 µM in assay [1] was found to be 0%; in assay [2], 0%; in assay [3], 0%; in assay [5], 92%; in assay [6], 0%. For the same molecule, the “inhibition rate, leucine aminopeptidase” value in assay [4] was found to be 0. Further, the 50% inhibitory concentration (IC50) in assay [5] (setting [7]) was 3 nM.

On to `O=C(C[S@+]([O-])c1ccccc1)[C@@H]1CCCN1C(=O)[C@@H]1CCCN1C(=O)OCc1ccccc1` [Compound 9, (2S)-1-(N-Benzyloxycarbonyl-L-prolyl)-2-{[(S)-phenylsulfinyl]-acetyl}pyrrolidine], for which the inhibition at 0.1 µM in assay [1] came to 0%; in assay [2], 0%; in assay [3], 0%; in assay [5], 98%; in assay [6] it was 0%. Further, the “inhibition rate, leucine aminopeptidase” value in assay [4] is 0. In addition, the IC50 in assay [5] (setting [7]) is 0.2 nM.

With `O=C(COc1ccc2c(c1)OCO2)[C@@H]1CCCN1C(=O)[C@@H]1CCCN1C(=O)NCc1ccccc1` [Compound 33, (2S)-1-[N-(Benzylaminocarbonyl)-L-prolyl]-2-{[(3,4-methylenedioxy)phenoxy]acetyl} pyrrolidine], the inhibition at 0.1 µM worked out at 0% in assay [1]; 0% in assay [2]; 0% in assay [3]; 96% in assay [5]; 0% in assay [6]. The same molecule gave an IC50 in assay [5] of 1 nM.
